The values below come from publication PMC5464343 (Pharmacology Research & Perspectives, 2017).

For data set [1], the system named is wild‐type CYP450s 1A2, 2C8, 2C9, 2C19, 2D6, 3A4, and 3A5. The experiment in a line: Metabolite identification, wild‐type CYP450‐overexpressing HEK293 microsomes. Conditions: compound presented as substrate to overexpressing CYP450 microsomes. The data set is classed as in vitro ADME, human.
Data set [2] has as its system UGT2B17. Conditions: HLM panel; ref Sun et al. 2010; cited from earlier work.
Data set [3] concerns CYP2D6*2. Conditions: transiently expressed CYP2D6*2, bufuralol 1′‐hydroxylation; ref Sakuyama et al. (2008); cited from earlier work.
Data set [4] has as its system CYP2C8*2. The arrangement: method as in Kaspera et al. 2010. Conditions: E. coli‐expressed CYP2C8*2 vs wild‐type; M‐1 and M‐23 formation; ref Kaspera et al. 2010; cited from earlier work.
Data set [5] has as its system CYP2C8*4. The arrangement: method as in Kaspera et al. (2010). Conditions: recombinant CYP2C8*4; ref Kaspera et al. (2010); cited from earlier work.
For data set [6], the target named is T1, CYP2C8 (Homo sapiens, UniProt P10632).
T1 sequence (P10632 1-490): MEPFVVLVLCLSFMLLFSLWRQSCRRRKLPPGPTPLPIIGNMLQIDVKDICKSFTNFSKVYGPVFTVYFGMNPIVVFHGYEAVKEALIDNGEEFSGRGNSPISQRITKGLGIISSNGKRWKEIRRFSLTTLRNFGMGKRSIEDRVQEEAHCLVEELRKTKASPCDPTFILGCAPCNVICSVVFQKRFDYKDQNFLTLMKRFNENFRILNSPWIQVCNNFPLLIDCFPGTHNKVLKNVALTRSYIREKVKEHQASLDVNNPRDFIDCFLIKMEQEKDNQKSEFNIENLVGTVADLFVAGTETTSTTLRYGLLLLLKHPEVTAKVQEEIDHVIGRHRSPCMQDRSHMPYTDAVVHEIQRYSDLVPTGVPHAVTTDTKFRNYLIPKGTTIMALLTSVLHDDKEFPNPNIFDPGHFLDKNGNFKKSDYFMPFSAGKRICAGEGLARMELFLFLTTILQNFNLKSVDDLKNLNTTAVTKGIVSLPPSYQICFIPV
Particulars: wild‐type CYP2C8*1A; V max/K M.

For data set [7], the target named is CYP2C9 (Homo sapiens, UniProt P11712). Conditions: wild‐type CYP2C9*1A; V max/K M.
Chain of CYP2C9 (P11712 whole entry): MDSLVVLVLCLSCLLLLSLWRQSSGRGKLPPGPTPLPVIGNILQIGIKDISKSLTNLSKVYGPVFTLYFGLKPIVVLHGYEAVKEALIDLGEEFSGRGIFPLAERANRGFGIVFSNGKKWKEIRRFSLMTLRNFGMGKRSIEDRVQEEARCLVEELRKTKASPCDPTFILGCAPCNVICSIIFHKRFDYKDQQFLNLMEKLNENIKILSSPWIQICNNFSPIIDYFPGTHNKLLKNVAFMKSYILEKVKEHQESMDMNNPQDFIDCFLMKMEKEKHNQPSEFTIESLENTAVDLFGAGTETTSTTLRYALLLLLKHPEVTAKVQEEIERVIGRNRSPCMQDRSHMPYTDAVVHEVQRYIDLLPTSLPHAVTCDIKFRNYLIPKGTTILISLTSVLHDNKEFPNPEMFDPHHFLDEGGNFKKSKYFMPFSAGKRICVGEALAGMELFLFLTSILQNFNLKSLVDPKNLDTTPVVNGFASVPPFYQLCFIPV
The subject of data set [8] is CYP2D6^Pro34Ser, Ser486Thr.
The test system of data set [9] is pooled HLM. The arrangement: method as in Kamdem et al. 2011. Particulars: pooled HLM treated with ketoconazole; ref Kamdem et al. 2011; cited from earlier work.
Substrate in data set [10]: C=C1C[C@@H]2[C@H](CC[C@]3(C)C(=O)CC[C@@H]23)[C@@]2(C)C=CC(=O)C=C12
Briefly: cells, lysate or membranes named. Conditions: other: CYP2C8*3; normalized to relative CYP450 content; pH 7.4; 37.0 °C.

Changes are numbered by the printed parent chain. In names and notes the source's numbering stands.

As a reminder, the Vmax is the top rate of the reaction or transport when substrate is in excess.

Take `C[C@]12C=CC(=O)C=C1C(CO)=C[C@@H]1[C@@H]2CC[C@]2(C)C(=O)CC[C@@H]12` [6‐HME, 6‐hydroxymethylandrosta‐1,4,6‐triene‐3,17‐dione]: the secondary metabolite formation entry in data set [1] is “not observed”.

On to `C=C1C[C@H]2[C@@H]3CC[C@@H](O)[C@@]3(C)CC[C@@H]2[C@@]2(C)C=CC(=O)C=C12` [17α‐DHE, 17α‐hydroxy‐6‐methyleneandrosta‐1,4‐dien‐3‐one], for which the secondary metabolite formation entry in [1] is “not observed”. As for `C=C1C[C@H]2[C@@H]3CC[C@H](O)[C@@]3(C)CC[C@@H]2[C@@]2(C)C=CC(=O)C=C12` [17β‐DHE, 17β‐hydroxy‐6‐methyleneandrosta‐1,4‐dien‐3‐one], in [1], the secondary metabolite formation result is on record as “not observed”. For the same molecule, in [2], the “glucuronidation (V max/K M) lower in UGT2B17‐null homozygotes (*2/*2) compared to wild‐type homozygotes (*1/*1)” value is on record as 36 fold. Take `CCc1cccc2cc(C(O)CNC(C)(C)C)oc12` (stereo not drawn) [bufuralol]: the “decrease in substrate affinity” value in data set [3] is recorded as “two‐fold”.

Take `COCc1c(C(C)C)nc(C(C)C)c(/C=C/[C@@H](O)C[C@@H](O)CC(=O)O)c1-c1ccc(F)cc1` [cerivastatin]: the “increase in the sum of cerivastatin metabolite clearance” value in data set [4] is listed as 53%. Also, the “increase of combined clearance of the M‐1 and M‐23 cerivastatin metabolites compared to wild‐type” value in data set [5] is listed as “approximately 2.5 fold”. Turning to `C=C1C[C@@H]2[C@H](CC[C@]3(C)C(=O)CC[C@@H]23)[C@@]2(C)C=CC(=O)C=C12` [exemestane, 6‐methyleneandrosta‐1,4‐diene‐3,17‐dione], the CLINT worked out at 0.194 µL/min/mg in data set [6]; 0.027 µL/min/mg in data set [7]; 0.038 µL/min/mg in data set [8] (CYP2D6*10, V max/K M). Further, the V max in data set [8] (CYP2D6*10, normalized to relative CYP450 content) came to 39 ± 6 pmol/min/mg. For the same molecule, the “increase of the K M value for EXE substrate” value in data set [8] (CYP2D6*10 vs CYP2D6*1) is 82%. Moreover, the “decrease in clearance compared to CYP2D6*1” value in data set [8] (human, microsomes, pH 7.4) was found to be 56%. `CC(=O)N1CCN(c2ccc(OCC3COC(Cn4ccnc4)(c4ccc(Cl)cc4Cl)O3)cc2)CC1` (stereo not drawn) [ketoconazole]: the “effect on 6‐HME formation” value in data set [9] was “strongly inhibits”.

B1: CYP2C8^Arg139Lys, Lys399Arg (Homo sapiens; K399R/R139K) (protein)
chain: T1 sequence (P10632 1-490) with R139K, K399R
Take B1: the Vmax in data set [10] was found to be 0.000144 µmol/min/mg.
